Literature values as cited in article PMC6920808, “Preclinical Evaluation of UDCA-Containing Oral Formulation in Mice for the Treatment of Wet Age-Related Macular Degeneration” (Pharmaceutics, 2019).

How the values were obtained:
retina = system: retina; parameters: method as in earlier work; settings: intravitreally injected, dose higher than 5 μg of TUDCA (5 mg/mL), Balb/C mice, ref [33]
laser-treated rat model = system: laser-treated rat model; parameters: method as in PMID 20565307; settings: intraperitoneally injected, ref [4]
[1] = parameters: method as in PMID 6479887, PMID 30319399; settings: ref [17],[18]

SMILES	A- and B-wave amplitudes in the ERG and outer nuclear layer thickness (retina)	CNV size and vascularity (laser-treated rat model)	early VEGF elevation in the retina (laser-treated rat model)	pKa [1]
C[C@H](CCC(=O)NCCS(=O)(=O)O)[C@H]1CC[C@H]2[C@@H]3[C@@H](O)C[C@@H]4C[C@H](O)CC[C@]4(C)[C@H]3CC[C@]12C [TUDCA, tauroursodeoxycholic acid]	reduced	reduction	effectively suppress	–
C[C@H](CCC(=O)O)[C@H]1CC[C@H]2[C@@H]3[C@@H](O)C[C@@H]4C[C@H](O)CC[C@]4(C)[C@H]3CC[C@]12C [UDCA, 3α,7β-dihydroxy-5β-cholanoic acid]	–	reduction	effectively suppress	around 5.0
